Source: ChEMBL document CHEMBL1125860 (J Med Chem, 1991)
Activity calls are given as the source filed them. No cut-off for these calls is given here.

Tests used:
[1] = test system: Rattus norvegicus; experiment: In vivo inhibition of galactitol accumulation in sciatic nerves of rat at 16 mg/kg/day; Not significant; format: functional, organism-based; details: Sciatic nerve
[2] = species: Rattus norvegicus; experiment: In vitro inhibition of sorbitol accumulation was measured in rat sciatic nerves incubated in the presence of 50 mM glucose at 10e-5 M concentration; format: functional, Sciatic nerve
[3] = test system: Rattus norvegicus; experiment: In vivo inhibition of galactitol accumulation in sciatic nerves of rat at 11 mg/kg/day; Not significant; format: functional, organism-based; details: Sciatic nerve
[4] = species: Rattus norvegicus; experiment: In vitro inhibition of sorbitol accumulation was measured in rat sciatic nerves incubated in the presence of 50 mM glucose at 10e-6 M concentration; format: functional, Sciatic nerve
[5] = test system: Rattus norvegicus; experiment: In vivo inhibition of galactitol accumulation in diaphragm of rat at 11 mg/kg/day; format: functional
[6] = molecular target: Aldo-keto reductase family 1 member B1 (Bos taurus) (UniProt P16116); experiment: In vitro % decrease of aldose reductase was measured in isolated partially purified bovine lens preparations at 10e-7 M concentration; Not active
[7] = test system: Rattus norvegicus; experiment: In vivo inhibition of galactitol accumulation in diaphragm of rat at 16 mg/kg/day; format: functional
[8] = molecular target: Aldo-keto reductase family 1 member B1 (Bos taurus) (UniProt P16116); experiment: In vitro % decrease of aldose reductase measured in isolated partially purified bovine lens preparations at 10e-7 M concentration
[9] = test system: Rattus norvegicus; experiment: In vivo inhibition of galactitol accumulation in diaphragm of rat at 123 mg/kg/day; format: functional
[10] = test system: Rattus norvegicus; experiment: In vivo inhibition of galactitol accumulation in sciatic nerves of rat at 123 mg/kg/day; format: functional; details: Sciatic nerve
[11] = test system: Rattus norvegicus; experiment: In vivo inhibition of galactitol accumulation in diaphragm of rat at 51 mg/kg/day; format: functional
[12] = test system: Rattus norvegicus; experiment: In vivo inhibition of galactitol accumulation in sciatic nerves of rat at 51 mg/kg/day; format: functional; details: Sciatic nerve
[13] = test system: Rattus norvegicus; experiment: In vivo inhibition of galactitol accumulation in diaphragm of rat at 144 mg/kg; format: functional
[14] = test system: Rattus norvegicus; experiment: In vivo inhibition of galactitol accumulation in sciatic nerves of rat at 44 mg/kg/day; Not significant; format: functional, organism-based; details: Sciatic nerve
[15] = species: Rattus norvegicus; experiment: Inhibition of galactitol accumulation in rat lens incubated in presence of 50 mM glucose; format: functional, organism-based; details: Lens of camera-type eye
[16] = test system: Rattus norvegicus; experiment: In vivo inhibition of galactitol accumulation in the RBC of galactose fed rat.; format: functional
[17] = test system: Rattus norvegicus; experiment: In vivo inhibition of galactitol accumulation in diaphragm of rat at 5 mg/kg/day; format: functional
[18] = test system: Rattus norvegicus; experiment: In vivo inhibition of galactitol accumulation in sciatic nerves of rat at 5 mg/kg/day; format: functional; details: Sciatic nerve
[19] = species: Rattus norvegicus; experiment: Inhibition of galactitol accumulation in sciatic nerves of rat incubated in presence of 50 mM glucose.; format: functional, organism-based; details: Sciatic nerve
[20] = test system: Rattus norvegicus; experiment: In vivo inhibition of galactitol accumulation in sciatic nerves of rat at 10 mg/kg/day; format: functional; details: Sciatic nerve
[21] = test system: Rattus norvegicus; experiment: In vivo inhibition of galactitol accumulation in sciatic nerves of galactose fed rat.; format: functional; details: Sciatic nerve
[22] = species: Rattus norvegicus; experiment: Inhibition of aldose reductase activity was measured by measuring sorbitor accumulation in the sciatic nerves of STZ diabetic rat.; format: functional; details: Sciatic nerve
[23] = test system: Rattus norvegicus; experiment: In vivo inhibition of galactitol accumulation in diaphragm of rat at 10 mg/kg/day; format: functional
[24] = species: Rattus norvegicus; experiment: Inhibition of galactitol accumulation in rat RBC incubated in presence of 50 mM glucose; format: functional, organism-based
[25] = molecular target: Aldo-keto reductase family 1 member B1 (Bos taurus) (UniProt P16116); experiment: Inhibition of aldose reductase activity was measured on partially purified bovine lens preparations incubated in presence of 50 mM glucose; Not active
[26] = test system: Rattus norvegicus; experiment: In vivo inhibition of galactitol accumulation in sciatic nerves of rat at 11 mg/kg/day; format: functional; details: Sciatic nerve
[27] = test system: Rattus norvegicus; experiment: In vivo inhibition of galactitol accumulation in sciatic nerves of rat at 32 mg/kg/day; format: functional; details: Sciatic nerve
[28] = test system: Rattus norvegicus; experiment: % reduction of aldose reductase inhibition was evaluated by measuring galactitol accumulation in sciatic nerves of rat at 32 mg/kg/day; format: functional; details: Sciatic nerve
[29] = test system: Rattus norvegicus; experiment: In vivo inhibition of galactitol accumulation in sciatic nerves of rat at 132 mg/kg/day; format: functional; details: Sciatic nerve
[30] = test system: Rattus norvegicus; experiment: In vivo inhibition of galactitol accumulation in diaphragm of rat at 132 mg/kg/day; format: functional
[31] = test system: Rattus norvegicus; experiment: In vivo inhibition of galactitol accumulation in diaphragm of rat at 97 mg/kg/day; format: functional
[32] = test system: Rattus norvegicus; experiment: In vivo inhibition of galactitol accumulation in sciatic nerves of rat at 97 mg/kg/day; format: functional; details: Sciatic nerve
[33] = test system: Rattus norvegicus; experiment: In vivo inhibition of galactitol accumulation in sciatic nerves of rat at 49 mg/kg/day; format: functional; details: Sciatic nerve
[34] = test system: Rattus norvegicus; experiment: In vivo inhibition of galactitol accumulation in sciatic nerves of rat at 26 mg/kg/day; format: functional; details: Sciatic nerve
[35] = test system: Rattus norvegicus; experiment: In vivo inhibition of galactitol accumulation in diaphragm of rat at 49 mg/kg; format: functional
[36] = test system: Rattus norvegicus; experiment: In vivo inhibition of galactitol accumulation in sciatic nerves of rat at 52 mg/kg/dayC; format: functional, organism-based; details: Sciatic nerve
[37] = test system: Rattus norvegicus; experiment: In vivo inhibition of galactitol accumulation in diaphragm of rat at 52 mg/kg/day; format: functional
[38] = test system: Rattus norvegicus; experiment: In vivo inhibition of galactitol accumulation in diaphragm of rat at 53 mg/kg/day; format: functional
[39] = test system: Rattus norvegicus; experiment: In vivo inhibition of galactitol accumulation in sciatic nerves of rat at 75 mg/kg/day; format: functional; details: Sciatic nerve
[40] = test system: Rattus norvegicus; experiment: In vivo inhibition of galactitol accumulation in diaphragm of rat at 25 mg/kg/day; […]; format: functional, organism-based
[41] = test system: Rattus norvegicus; experiment: In vivo inhibition of galactitol accumulation in sciatic nerves of rat at 25 mg/kg/day; format: functional; details: Sciatic nerve
[42] = test system: Rattus norvegicus; experiment: In vivo inhibition of galactitol accumulation in sciatic nerves of rat at 53 mg/kg/day; format: functional; details: Sciatic nerve
[43] = test system: Rattus norvegicus; experiment: In vivo inhibition of galactitol accumulation in diaphragm of rat at 75 mg/kg/day; format: functional

## COC(=O)N(CC(N)=O)C(=O)c1c(F)ccc2c(C(F)(F)F)c(OC)ccc12
[1]
  inhibition: inactive
[2]
  Inhibition: 34%
[3]
  inhibition: inactive
[4]
  Inhibition: 4%
[5]
  inhibition in vivo at 11 mg/kg/day: 28%
[6]
  inhibition: inactive
[7]
  inhibition in vivo at 16 mg/kg/day: 33%

## COc1ccc2c(C(=S)N(C)CC(=O)O)cc(C)cc2c1Br
[2]
  Inhibition: 86%
[8]
  inhibition: 85%
[3]
  inhibition: inactive
[9]
  inhibition in vivo at 123 mg/kg/day: 91%
[4]
  Inhibition: 43%
[10]
  inhibition in vivo at 123 mg/kg/day: 86%
[5]
  inhibition in vivo at 11 mg/kg/day: 48%

## COC(=O)N(CC(=O)O)C(=O)c1c(Br)ccc2c(C(F)(F)F)c(OC)ccc12
[11]
  inhibition in vivo at 51 mg/kg/day: 62%
[12]
  inhibition in vivo at 51 mg/kg/day: 69%
[2]
  Inhibition: 68%
[8]
  inhibition: 77%
[4]
  Inhibition: 29%

## COc1ccc2c(C(=O)N(C)CC(=O)O)cc(Cc3ccccc3)cc2c1Br
[13]
  inhibition in vivo at 144 mg/kg: 24%
[14]
  inhibition: inactive
[2]
  Inhibition: 72%
[8]
  inhibition: 74%
[4]
  Inhibition: 44%

## COc1ccc2c(C(=O)N(C)CC(N)=O)c(F)ccc2c1C(F)(F)F
[15]
  IC50: > 10 µM
[16]
  ED50: 8.5 mg/kg
[17]
  inhibition in vivo at 5 mg/kg/day: 32%
[2]
  Inhibition: 80%
[18]
  inhibition in vivo at 5 mg/kg/day: 39%
[19]
  IC50: 3.1 µM
[20]
  inhibition in vivo at 10 mg/kg/day: 59%
[21]
  ED50: 5.5 mg/kg
[22]
  ED50: < 3 mg/kg
[4]
  Inhibition: 17%
[23]
  inhibition in vivo at 10 mg/kg/day: 41%
[24]
  IC50: 12 µM
[25]
  inhibition: inactive

## CCN(CC)C(=O)COC(=O)CN(C(=O)OC)C(=O)c1c(F)ccc2c(C(F)(F)F)c(OC)ccc12
[26]
  inhibition in vivo at 11 mg/kg/day: 39%
[27]
  inhibition in vivo at 32 mg/kg/day: 75%
[5]
  inhibition in vivo at 11 mg/kg/day: 36%
[6]
  inhibition: inactive
[28]
  inhibition in vivo at 32 mg/kg/day: 75%

## COc1ccc2c(C(=O)N(C)CC(=O)O)cc(-c3ccccc3)cc2c1Br
[2]
  Inhibition: 71%
[29]
  inhibition in vivo at 132 mg/kg/day: 24%
[8]
  inhibition: 83%
[4]
  Inhibition: 28%
[30]
  inhibition in vivo at 132 mg/kg/day: 33%

## COc1ccc2c(C(=O)N(C)CC(=O)O)c(Br)ccc2c1C(F)(F)F
[2]
  Inhibition: 67%
[8]
  inhibition: 63%
[31]
  inhibition in vivo at 97 mg/kg/day: 84%
[4]
  Inhibition: 37%
[32]
  inhibition in vivo at 97 mg/kg/day: 44%

## COc1ccc2c(C(=O)N(C)CC(=O)O)c(Cl)ccc2c1C(F)(F)F
[33]
  inhibition in vivo at 49 mg/kg/day: 83%
[34]
  inhibition in vivo at 26 mg/kg/day: 43%
[2]
  Inhibition: 67%
[35]
  inhibition in vivo at 49 mg/kg: 80%
[8]
  inhibition: 63%
[4]
  Inhibition: 39%

## COc1ccc2c(C(=O)N(C)CC(=O)O)ccc(Cc3ccccc3)c2c1Br
[36]
  inhibition: inactive
[8]
  inhibition: 80%
[37]
  inhibition in vivo at 52 mg/kg/day: 34%

## COc1ccc2c(C(=O)N(C)CC(=O)O)cccc2c1C(F)(F)F
[38]
  inhibition in vivo at 53 mg/kg/day: 94%
[39]
  inhibition in vivo at 75 mg/kg/day: 56%
[40]
  inhibition: inactive
[41]
  inhibition in vivo at 25 mg/kg/day: 33%
[2]
  Inhibition: 74%
[42]
  inhibition in vivo at 53 mg/kg/day: 93%
[4]
  Inhibition: 27%
[43]
  inhibition in vivo at 75 mg/kg/day: 27%
